Reference: EP0911328B1, “SUBSTITUTED AMINOCYCLOALKYLPYRROLIDINE DERIVATIVES” (DAIICHI PHARMACEUTICAL CO., LTD., priority 1995, dated 1997)
≈ marks a conversion by molar mass, not a printed value. Where two headings read alike, the source gives them in different places.

Key:
Test in all cases: Antibacterial activity (MIC), standard method of Japan Society of Chemotherapy
Type in all cases: cell-based
[1] = test system: Ps. aeruginosa, 32121; details: Pseudomonas aeruginosa, strain Ps. aeruginosa, read-out: minimum inhibitory concentration (MIC)
Method: (§1) Examples of the present invention are given below by way of illustration and not by way of limitation. In this connection, antibacterial activity of each compound of interest was measured in accordance with the standard method designated by Japan Society of Chemotherapy. The results are shown in Tables 1 to 3 as minimum inhibitory concentration (MIC, µg/ml).

[2] = test system: Str. faecalis, ATCC-19433; details: Enterococcus faecalis, ATCC19433, strain Str. faecalis, read-out: minimum inhibitory concentration (MIC)
Method: as §1

[3] = test system: S. epidermidis, 56500
Method: as §1

[4] = test system: Ps. aeruginosa, 32104; details: Pseudomonas aeruginosa, strain Ps. aeruginosa, read-out: minimum inhibitory concentration (MIC)
Method: as §1

[5] = test system: S. aureus, 209P; details: Staphylococcus aureus, strain S. aureus, read-out: minimum inhibitory concentration (MIC)
Method: as §1

[6] = test system: S. flexneli, 2A 5503; details: strain S. flexneli, read-out: minimum inhibitory concentration (MIC)
Method: as §1

[7] = test system: Ps. maltophilia, IID-1275; details: Stenotrophomonas maltophilia, IID1275, strain Ps. maltophilia, read-out: minimum inhibitory concentration (MIC)
Method: as §1

[8] = test system: Pr. mirabilis, IFO-3849; details: Proteus mirabilis, IFO3849, strain Pr. mirabilis, read-out: minimum inhibitory concentration (MIC)
Method: as §1

[9] = test system: E. coli, NIHJ; details: Escherichia coli, read-out: minimum inhibitory concentration (MIC)
Method: as §1

[10] = test system: Str. pyogenes, G-36; details: Streptococcus pyogenes
Method: as §1

[11] = test system: Ser. marcescens, 10100; details: Serratia marcescens, strain Ser. marcescens, read-out: minimum inhibitory concentration (MIC)
Method: as §1

[12] = test system: Pr. vulgaris, 08601
Method: as §1

[13] = test system: S. aureus, 870307; details: Staphylococcus aureus, strain S. aureus, read-out: minimum inhibitory concentration (MIC)
Method: as §1

[14] = Staphylococcus epidermidis, 56500, read-out: minimum inhibitory concentration (MIC)
[15] = G36, strain Str. pyogenes, G-36, read-out: minimum inhibitory concentration (MIC)
[16] = Proteus vulgaris, strain Pr. vulgaris, 08601, read-out: minimum inhibitory concentration (MIC)
[17] = Staphylococcus epidermidis, strain S. epidermidis, 56500, read-out: minimum inhibitory concentration (MIC)

Question: For CO[C@H]1CN(c2c(F)c(N)c3c(=O)c(C(=O)O)cn([C@@H]4C[C@@H]4F)c3c2C)C[C@@H]1C1(N)CC1 [compound 4], which MIC [1] is on record?
Answer: The MIC was 0.39 µg/mL (≈ 0.87 µM).

Question: And the MIC [2]?
Answer: Its MIC is 0.1 µg/mL (≈ 0.223 µM).

Question: And the MIC [3, 14]?
Answer: The MIC was 0.013 µg/mL (≈ 0.029 µM).

Question: What about the MIC [4] of the same compound?
Answer: Its MIC is 0.78 µg/mL (≈ 1.74 µM).

Question: What about the MIC [5] of the same compound?
Answer: Its MIC is at most 0.003 µg/mL.

Question: And the MIC [6]?
Answer: Its MIC is 0.013 µg/mL (≈ 0.029 µM).

Question: And the MIC [7]?
Answer: The MIC was 0.2 µg/mL (≈ 0.446 µM).

Question: What about the MIC [8] of the same compound?
Answer: Its MIC is 0.2 µg/mL (≈ 0.446 µM).

Question: And the MIC [9]?
Answer: The MIC was 0.013 µg/mL (≈ 0.029 µM).

Question: And the MIC [10, 15]?
Answer: The MIC was 0.025 µg/mL (≈ 0.0557 µM).

Question: And the MIC [11]?
Answer: The MIC was 0.2 µg/mL (≈ 0.446 µM).

Question: What about the MIC [12, 16] of the same compound?
Answer: Its MIC is 0.1 µg/mL (≈ 0.223 µM).

Question: What about the MIC [13] of the same compound?
Answer: Its MIC is 0.1 µg/mL (≈ 0.223 µM).

Question: Which MIC [1] does the source give for Cc1c(N2C[C@H](F)[C@@H](C3(N)CC3)C2)c(F)c(N)c2c(=O)c(C(=O)O)cn([C@@H]3C[C@@H]3F)c12 [compound 5] here?
Answer: The MIC was 0.05 µg/mL (≈ 0.115 µM).

Question: And the MIC [2]?
Answer: Its MIC is 0.013 µg/mL (≈ 0.0298 µM).

Question: What about the MIC [4] of the same compound?
Answer: The MIC was 0.1 µg/mL (≈ 0.229 µM).

Question: And the MIC [5]?
Answer: Its MIC is at most 0.003 µg/mL.

Question: What about the MIC [6] of the same compound?
Answer: The MIC was at most 0.003 µg/mL.

Question: And the MIC [7]?
Answer: The MIC was 0.05 µg/mL (≈ 0.115 µM).

Question: What about the MIC [8] of the same compound?
Answer: The MIC was 0.025 µg/mL (≈ 0.0573 µM).

Question: And the MIC ([9]; strain E. coli, NIHJ)?
Answer: The MIC was at most 0.003 µg/mL.

Question: What about the MIC [10, 15] of the same compound?
Answer: Its MIC is at most 0.003 µg/mL.

Question: And the MIC [11]?
Answer: The MIC was 0.05 µg/mL (≈ 0.115 µM).

Question: And the MIC [12, 16]?
Answer: Its MIC is 0.013 µg/mL (≈ 0.0298 µM).

Question: And the MIC [13]?
Answer: Its MIC is 0.006 µg/mL (≈ 0.0137 µM).

Question: What does the source list for C[C@H]1COc2c(N3C[C@H](F)[C@@H](C4(N)CC4)C3)c(F)cc3c(=O)c(C(=O)O)cn1c23 [compound 6]?
Answer: MIC [1]: 0.2 µg/mL (≈ 0.493 µM); MIC [2]: 0.1 µg/mL (≈ 0.247 µM); MIC [3, 14]: 0.025 µg/mL (≈ 0.0617 µM); MIC [4]: 0.78 µg/mL (≈ 1.92 µM); MIC [5]: 0.006 µg/mL (≈ 0.0148 µM); MIC [6]: 0.025 µg/mL (≈ 0.0617 µM); MIC [7]: 0.39 µg/mL (≈ 0.962 µM); MIC [8]: 0.2 µg/mL (≈ 0.493 µM); MIC ([9]; strain E. coli, NIHJ): 0.013 µg/mL (≈ 0.0321 µM); MIC ([10]; G36, read-out: minimum inhibitory concentration (MIC)): 0.025 µg/mL (≈ 0.0617 µM); MIC [11]: 0.1 µg/mL (≈ 0.247 µM); MIC [12, 16]: 0.05 µg/mL (≈ 0.123 µM); MIC [13]: 0.39 µg/mL (≈ 0.962 µM)

Question: With Cc1c(N2C[C@H](C3(N)CC3)C(F)(F)C2)c(F)c(N)c2c(=O)c(C(=O)O)cn([C@@H]3C[C@@H]3F)c12 [compound 7] as the compound, how does the MIC [1] read?
Answer: Its MIC is 0.05 µg/mL (≈ 0.11 µM).

Question: What about the MIC [2] of the same compound?
Answer: The MIC was 0.013 µg/mL (≈ 0.0286 µM).

Question: What about the MIC [3, 17] of the same compound?
Answer: Its MIC is at most 0.003 µg/mL.

Question: And the MIC [4]?
Answer: Its MIC is 0.1 µg/mL (≈ 0.22 µM).

Question: And the MIC [5]?
Answer: The MIC was at most 0.003 µg/mL.

Question: What about the MIC [6] of the same compound?
Answer: The MIC was at most 0.003 µg/mL.

Question: What about the MIC [7] of the same compound?
Answer: Its MIC is 0.05 µg/mL (≈ 0.11 µM).

Question: And the MIC [8]?
Answer: Its MIC is 0.025 µg/mL (≈ 0.055 µM).

Question: What about the MIC ([9]; strain E. coli, NIHJ) of the same compound?
Answer: The MIC was at most 0.003 µg/mL.

Question: What about the MIC [10, 15] of the same compound?
Answer: Its MIC is at most 0.003 µg/mL.

Question: And the MIC [11]?
Answer: Its MIC is 0.05 µg/mL (≈ 0.11 µM).

Question: And the MIC [12, 16]?
Answer: The MIC was 0.05 µg/mL (≈ 0.11 µM).

Question: And the MIC [13]?
Answer: Its MIC is 0.013 µg/mL (≈ 0.0286 µM).

Question: For C[C@H]1COc2c(N3C[C@H](C4(N)CC4)C(F)(F)C3)c(F)cc3c(=O)c(C(=O)O)cn1c23 [compound 8], which MIC [1] is on record?
Answer: Its MIC is 0.39 µg/mL (≈ 0.921 µM).

Question: And the MIC [2]?
Answer: Its MIC is 0.2 µg/mL (≈ 0.472 µM).

Question: What about the MIC [3, 17] of the same compound?
Answer: Its MIC is 0.05 µg/mL (≈ 0.118 µM).

Question: And the MIC [4]?
Answer: Its MIC is 1.56 µg/mL (≈ 3.68 µM).

Question: What about the MIC [5] of the same compound?
Answer: Its MIC is 0.025 µg/mL (≈ 0.059 µM).

Question: What about the MIC [6] of the same compound?
Answer: Its MIC is 0.05 µg/mL (≈ 0.118 µM).

Question: And the MIC [7]?
Answer: The MIC was 0.39 µg/mL (≈ 0.921 µM).

Question: And the MIC [8]?
Answer: Its MIC is 0.78 µg/mL (≈ 1.84 µM).

Question: And the MIC ([9]; strain E. coli, NIHJ)?
Answer: Its MIC is 0.025 µg/mL (≈ 0.059 µM).

Question: What about the MIC [10, 15] of the same compound?
Answer: The MIC was 0.1 µg/mL (≈ 0.236 µM).

Question: What about the MIC [11] of the same compound?
Answer: The MIC was 0.39 µg/mL (≈ 0.921 µM).

Question: What about the MIC [12, 16] of the same compound?
Answer: The MIC was 0.1 µg/mL (≈ 0.236 µM).

Question: And the MIC [13]?
Answer: The MIC was 0.78 µg/mL (≈ 1.84 µM).

Question: Which MIC [1] does the source give for COc1c(N2C[C@@H](F)[C@@H](C3(N)CC3)C2)c(F)cc2c(=O)c(C(=O)O)cn([C@@H]3C[C@@H]3F)c12 [compound 12] here?
Answer: The MIC was 0.1 µg/mL (≈ 0.229 µM).

Question: And the MIC [2]?
Answer: Its MIC is 0.025 µg/mL (≈ 0.0572 µM).

Question: What about the MIC [3, 14] of the same compound?
Answer: Its MIC is 0.013 µg/mL (≈ 0.0297 µM).

Question: What about the MIC [4] of the same compound?
Answer: Its MIC is 0.39 µg/mL (≈ 0.892 µM).

Question: And the MIC [5]?
Answer: The MIC was at most 0.003 µg/mL.

Question: And the MIC [6]?
Answer: Its MIC is 0.013 µg/mL (≈ 0.0297 µM).

Question: What about the MIC [7] of the same compound?
Answer: Its MIC is 0.2 µg/mL (≈ 0.457 µM).

Question: What about the MIC [8] of the same compound?
Answer: The MIC was 0.05 µg/mL (≈ 0.114 µM).

Question: And the MIC ([9]; strain E. coli, NIHJ)?
Answer: Its MIC is at most 0.003 µg/mL.

Question: And the MIC [10, 15]?
Answer: Its MIC is 0.006 µg/mL (≈ 0.0137 µM).

Question: What about the MIC [11] of the same compound?
Answer: Its MIC is 0.1 µg/mL (≈ 0.229 µM).

Question: And the MIC ([12]; Proteus vulgaris, 08601, read-out: minimum inhibitory concentration (MIC))?
Answer: Its MIC is 0.013 µg/mL (≈ 0.0297 µM).

Question: And the MIC [13]?
Answer: The MIC was 0.025 µg/mL (≈ 0.0572 µM).
